# Measured values as given in EP4553077A1 (Kinoteck Therapeutics Co., Ltd, priority 2022, dated 2024).
# Key:
# [1] = Pharmacokinetic test in rats; assay type: in vivo, male SD rats; settings: rat, plasma, oral gavage administration, 10 mg/kg
# Summary of the method: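 Male SD rats (180-220 g, fasted overnight, n=3 per route) received 10 mg/kg by oral gavage or 1 mg/kg intravenously. Plasma was sampled from 5 min to 24 h post-dose and analysed by LC-MS/MS after protein precipitation. Parameters came from non-compartmental analysis.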
# [2] = Rat liver cells metabolic stability; assay type: in vitro ADME; settings: rat liver cells 0.5 × 10^6 cells/mL
# Description: Test compound and control drug verapamil powder were prepared into […] stock solution using DMSO, and they were diluted with 50% acetonitrile/50% water to 100 µM working solution before use.
# • 1) 49.5 mL Williams E Medium and 0.5 mL glutaMAX were mixed as incubation medium. The liver cell resuscitation solution and incubation solution were preheated in a 37 °C water bath for at least 15 min before use. • 2) A tube of liver cells stored at ultra-low temperature was taken and ensured that they remain in a low-temperature frozen state before resuscitation. The liver cells were placed quickly in a 37 °C water bath and shaken gently until all ice crystals were dispersed. • 3) The contents of the liver cells tubes were poured into a centrifuge tube containing 50 mL of resuscitation medium, and they were centrifuged at 100 g for 10 min. After centrifugation, the resuscitation medium was aspirated, and sufficient incubation medium was added to obtain a cell suspension with a cell density of approximately 1.0 × 10^6 cells/mL. • 4) AO/PI staining was used to count liver cells and determine viable cell density, the survival rate of liver cells must be greater than 75%. The liver cell suspension was diluted with incubation medium to a viable cell density of 0.5 × 10^6 cells/mL.
# • 1) 198 µL live cell suspension was transferred to a 96 well deep well plate, and the deep well plate was placed on a vortex and preheat in the incubator for 10 min. • 2) 2 µL 100 µM test compound or positive control compound was added to each well for reaction initiation, and the deep well plate was placed back on the incubator vortex. • 3) The incubation plate was placed into the incubator for incubation. 25 µL suspension was taken at 0.5, 15, 30, 60, 90, and 120 min, and 6-fold (150 µL) acetonitrile containing internal standard quencher (100 nM alprazolam, 200 nM caffeine, and 100 nM toluenesulfonylbutamide) was added to a new 96 well plate to terminate the reaction. The plate was vortexed for 5 min and centrifuged at 3220 rpm and 4 °C for 45 min to precipitate the protein. 100 µL of supernatant was transferred to the sample plate, and 100 µL pure water was added and mixed well for UPLC-MS/MS analysis. All incubation systems were conducted in a dual parallel manner.
# All data was calculated using Microsoft Excel software. Peak area was detected by extracting ion chromatogram. In vitro half-life (T1/2) and in vitro clearance rate (in µL/min/10^6 cells) of the parent drug were detected by linearly fitting of the natural logarithm of the […] percentage of the parent drug versus time. Table 6 Results of rat liver cell stability test
# CYP1A2 = target: T1, CYP1A2 (Homo sapiens, UniProt P05177); test: Cytochrome P450 inhibition in human liver microsomes
# T1 sequence (P05177 1-516): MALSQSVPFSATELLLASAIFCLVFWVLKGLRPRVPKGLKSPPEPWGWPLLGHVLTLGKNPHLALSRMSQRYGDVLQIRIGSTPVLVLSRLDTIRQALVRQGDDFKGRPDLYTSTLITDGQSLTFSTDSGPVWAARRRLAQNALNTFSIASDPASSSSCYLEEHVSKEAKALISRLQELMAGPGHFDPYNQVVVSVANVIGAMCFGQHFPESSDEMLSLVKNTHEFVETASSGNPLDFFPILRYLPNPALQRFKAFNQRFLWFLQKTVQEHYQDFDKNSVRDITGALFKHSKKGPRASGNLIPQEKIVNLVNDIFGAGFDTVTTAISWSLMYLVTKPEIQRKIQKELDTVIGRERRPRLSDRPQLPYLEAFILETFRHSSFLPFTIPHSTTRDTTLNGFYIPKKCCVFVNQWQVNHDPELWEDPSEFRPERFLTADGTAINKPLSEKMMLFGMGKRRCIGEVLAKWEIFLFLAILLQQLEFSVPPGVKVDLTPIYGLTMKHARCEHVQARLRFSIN
# Description: (§1) Preparation of positive control inhibitor and compound working solution: 16 µL inhibitor stock solution or compound stock solution for each CYP subtype were taken and added to 24 µL DMSO. Then, they were diluted gradually three times with diluent to obtain different concentrations of test sample/positive control inhibitor working solution (7 concentrations each except for blank)
# (§2) Preparation of test sample group working solution: The human liver microsomal working solution was divided into 96 well plates at 796 µL per well, and then 4 µL test sample working solution was added.
# (§3) Preparation of positive control group working solution: The human liver microsomal working solution was divided into 96 well plates at 199 µL per well, and then 1 µL positive control inhibitor working solution was added.
# (§4) Blank solvent working solution preparation: The human liver microsomal working solution was divided into 96 well plates at 199 µL per well, and then 1 µL DMSO was added.
# (§5) (a) 30 µL test sample/positive control inhibitor working solution or 30 µL blank solvent working solution per well were transferred into a 96 well plate, and 15 µL substrate working solution of different enzyme subtypes transferred into each well, and mixed evenly. (b) The above incubation plates and 4 x NADPH working solution were preheated at 37 °C for 5 min. (c) 15 µL preheated 4 × NADPH working solution per well was transferred into the incubation plate, and the reaction initiated, and continued to be incubated at 37 °C.
# (§6) (d) After the reaction time was reached, 180 µL termination solution was added to terminate the reaction. […] (f) After centrifugation, 80 µL supernatant was taken and added to 120 µL ultrapure water, and after it was mixed evenly, LC-MS/MS was used to analyze the metabolites of the probe substrate.
# CYP2C9 = CYP2C9 (Homo sapiens, UniProt P11712); test: as above
# CYP2C9, sequence (P11712 whole entry): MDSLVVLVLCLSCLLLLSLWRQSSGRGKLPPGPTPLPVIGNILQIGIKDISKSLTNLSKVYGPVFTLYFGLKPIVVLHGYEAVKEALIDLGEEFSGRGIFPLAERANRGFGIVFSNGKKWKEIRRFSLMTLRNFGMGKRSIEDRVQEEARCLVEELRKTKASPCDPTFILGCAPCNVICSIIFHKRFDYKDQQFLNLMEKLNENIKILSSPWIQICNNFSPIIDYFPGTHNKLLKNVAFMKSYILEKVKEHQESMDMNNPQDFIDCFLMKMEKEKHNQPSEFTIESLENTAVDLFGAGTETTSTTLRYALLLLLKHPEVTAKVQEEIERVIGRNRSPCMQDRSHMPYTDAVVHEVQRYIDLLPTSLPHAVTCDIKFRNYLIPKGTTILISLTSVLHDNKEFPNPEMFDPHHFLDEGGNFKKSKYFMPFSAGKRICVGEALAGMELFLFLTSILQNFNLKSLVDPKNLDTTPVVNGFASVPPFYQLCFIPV
# Description: as §1, §2, §3, §4, §5, §6
# CYP2C19 = CYP2C19 (Homo sapiens, UniProt P33261); test: as above
# CYP2C19, sequence (P33261 whole entry): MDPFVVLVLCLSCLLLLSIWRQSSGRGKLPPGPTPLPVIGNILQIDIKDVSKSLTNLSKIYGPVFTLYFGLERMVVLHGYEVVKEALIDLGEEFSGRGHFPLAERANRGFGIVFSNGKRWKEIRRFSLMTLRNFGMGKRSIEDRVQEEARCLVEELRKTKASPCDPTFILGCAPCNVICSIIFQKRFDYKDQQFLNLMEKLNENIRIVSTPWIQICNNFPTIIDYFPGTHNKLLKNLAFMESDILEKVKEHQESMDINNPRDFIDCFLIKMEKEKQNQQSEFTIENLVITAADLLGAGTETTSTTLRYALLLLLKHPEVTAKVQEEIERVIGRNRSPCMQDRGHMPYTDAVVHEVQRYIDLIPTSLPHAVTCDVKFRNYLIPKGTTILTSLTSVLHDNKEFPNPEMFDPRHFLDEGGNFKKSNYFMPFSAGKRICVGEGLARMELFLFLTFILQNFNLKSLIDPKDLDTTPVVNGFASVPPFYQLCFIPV
# Description: as §1, §2, §3, §4, §5, §6
# CYP2D6 = CYP2D6 (Homo sapiens, UniProt P10635); test: as above
# CYP2D6, sequence (P10635 whole entry): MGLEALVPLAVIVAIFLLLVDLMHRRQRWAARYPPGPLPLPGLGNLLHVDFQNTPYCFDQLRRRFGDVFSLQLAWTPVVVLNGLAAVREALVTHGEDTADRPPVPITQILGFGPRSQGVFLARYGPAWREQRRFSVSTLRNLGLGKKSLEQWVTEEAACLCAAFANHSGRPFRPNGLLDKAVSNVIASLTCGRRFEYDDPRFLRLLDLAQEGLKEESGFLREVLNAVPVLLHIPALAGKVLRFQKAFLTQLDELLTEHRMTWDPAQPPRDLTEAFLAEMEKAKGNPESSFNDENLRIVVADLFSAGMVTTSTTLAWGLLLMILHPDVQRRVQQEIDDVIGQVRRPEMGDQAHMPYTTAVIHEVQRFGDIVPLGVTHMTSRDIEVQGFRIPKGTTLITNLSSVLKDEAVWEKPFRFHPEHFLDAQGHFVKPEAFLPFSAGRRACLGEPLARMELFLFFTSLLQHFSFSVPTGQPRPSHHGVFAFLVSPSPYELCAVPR
# Description: as §1
# (§7) Preparation of liver microsomal working solution: 300 µL human liver microsomes (20.0 mg/mL) was taken and added to 29700 µL PBS and mixed well, and the concentration of the prepared human liver microsomal working solution was 0.200 mg/mL.
# (§8) Preparation of 4 x NADPH working solution: A certain weight of NADPH tetrasodium salt was weighted and dissolved to a suitable volume of PBS to obtain NADPH working solution, with a concentration of 8.00 mM.
# as §2, §3, §4
# (§9) (a) 30 µL test sample/positive control inhibitor working solution or 30 µL blank solvent working solution per well were transferred into a 96 well plate, and 15 µL substrate working solution of different enzyme subtypes transferred into each well, and mixed evenly. (b) The above incubation plates and 4 x NADPH working solution were preheated at 37 °C for 5 min. (c) 15 µL preheated 4 × NADPH working solution per well was transferred into the incubation plate, and the reaction initiated, and continued to be incubated at 37 °C. The incubation time is as follows:
# as §6
# CYP3A4 = CYP3A4 (Homo sapiens, UniProt P08684); test: as above
# CYP3A4, sequence (P08684 whole entry): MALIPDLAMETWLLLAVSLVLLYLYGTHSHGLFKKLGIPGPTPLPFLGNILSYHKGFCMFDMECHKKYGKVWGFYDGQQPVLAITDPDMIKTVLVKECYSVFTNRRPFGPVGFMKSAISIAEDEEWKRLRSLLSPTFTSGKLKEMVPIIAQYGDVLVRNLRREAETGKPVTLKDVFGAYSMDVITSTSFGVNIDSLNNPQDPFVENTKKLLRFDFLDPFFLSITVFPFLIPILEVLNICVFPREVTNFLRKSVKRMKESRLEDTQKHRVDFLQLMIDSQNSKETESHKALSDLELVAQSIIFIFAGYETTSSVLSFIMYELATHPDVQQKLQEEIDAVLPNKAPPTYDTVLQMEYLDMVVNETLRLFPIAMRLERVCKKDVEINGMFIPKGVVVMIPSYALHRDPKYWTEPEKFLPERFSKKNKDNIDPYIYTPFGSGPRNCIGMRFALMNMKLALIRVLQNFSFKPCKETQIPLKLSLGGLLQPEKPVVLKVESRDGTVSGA
# Description: as §1, §7, §8, §2, §3, §4, §9, §6
# hERG = hERG (Homo sapiens, UniProt Q12809); test: Manual patch clamp, hERG channel current in HEK-293 cells
# hERG, sequence (Q12809 whole entry): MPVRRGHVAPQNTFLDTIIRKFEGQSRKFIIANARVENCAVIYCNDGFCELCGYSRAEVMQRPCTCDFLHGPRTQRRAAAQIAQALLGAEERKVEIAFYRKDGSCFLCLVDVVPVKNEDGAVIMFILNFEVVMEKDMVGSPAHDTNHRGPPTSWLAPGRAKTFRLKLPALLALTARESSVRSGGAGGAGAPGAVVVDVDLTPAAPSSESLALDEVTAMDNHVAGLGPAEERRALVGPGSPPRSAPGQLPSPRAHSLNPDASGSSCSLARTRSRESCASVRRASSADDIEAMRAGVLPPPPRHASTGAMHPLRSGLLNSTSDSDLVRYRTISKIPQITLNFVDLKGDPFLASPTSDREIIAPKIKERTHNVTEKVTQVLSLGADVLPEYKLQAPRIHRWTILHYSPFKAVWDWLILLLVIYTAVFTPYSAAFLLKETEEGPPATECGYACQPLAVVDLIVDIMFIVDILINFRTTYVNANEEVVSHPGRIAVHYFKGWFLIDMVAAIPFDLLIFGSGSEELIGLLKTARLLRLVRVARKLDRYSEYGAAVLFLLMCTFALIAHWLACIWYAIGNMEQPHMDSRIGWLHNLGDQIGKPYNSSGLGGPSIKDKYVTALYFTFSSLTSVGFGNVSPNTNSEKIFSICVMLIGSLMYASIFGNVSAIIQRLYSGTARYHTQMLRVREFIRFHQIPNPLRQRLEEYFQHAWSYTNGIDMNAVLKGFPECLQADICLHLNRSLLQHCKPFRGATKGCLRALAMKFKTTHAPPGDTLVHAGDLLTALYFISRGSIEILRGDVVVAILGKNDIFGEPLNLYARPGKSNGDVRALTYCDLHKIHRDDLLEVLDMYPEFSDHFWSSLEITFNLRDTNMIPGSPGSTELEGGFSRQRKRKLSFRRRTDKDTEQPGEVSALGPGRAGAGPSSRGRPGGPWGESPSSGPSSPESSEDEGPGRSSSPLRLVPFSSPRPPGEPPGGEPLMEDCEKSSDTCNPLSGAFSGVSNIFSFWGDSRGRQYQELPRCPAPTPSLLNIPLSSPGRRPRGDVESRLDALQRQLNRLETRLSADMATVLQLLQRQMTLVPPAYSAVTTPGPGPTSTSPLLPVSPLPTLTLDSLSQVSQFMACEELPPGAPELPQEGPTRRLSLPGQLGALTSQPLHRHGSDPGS
# Description: The test compound diluents were diluted with extracellular fluid containing 0.5% F68 in sequence to prepare working solutions of 30 µM, 10 µM, 3 µM, 1 µM and 0.3 µM, and 0.3% DMSO was ensured.
# The test compound diluents were diluted with extracellular fluid containing 0.5% F68 in sequence to prepare working solutions with concentrations of 30 µM, 10 µM, 3 µM, 1 µM and 0.3 µM, and 0.3% DMSO was ensured.
# Cells were inoculated into 6 cm cell culture dishes, with a total of 2.5 × 10^5 cells per dish (final volume: 5 mL). To maintain the electrophysiological activity of cells, the cell density must not exceed 80%.
# The voltage stimulation protocol for recording hERG currents using whole cell patch clamp was as follows: when a whole cell seal was formed, the cell membrane voltage was clamped at -80 mV. […] Data was collected repeatedly every 10 s to observe the effect of the drug on hERG tail current. The experimental data was collected by IPA amplifier (Sutter Instrument) and stored in SutterPatch (with Igor Pro) software.
# When the hERG current recorded by the whole cell was stabilized, administration began, and each drug concentration acted for about 5 min (or until the current was stabilized), and then the next concentration was detected, multiple concentrations were detected for each test compound. The cover glass covered with cells was placed in the recording bath under an inverted microscope, the blank control solution and the test compound working solution sequentially flowed through the recording bath from low concentration to high concentration using gravity perfusion to act on the cells, liquid exchange was performed using a peristaltic pump during recording. The current of each cell detected in the extracellular fluid without the compound serves as its own control group. Each concentration should be independently tested twice using at least two cells. All electrophysiological tests were performed at room temperature.
# Ba/F3-TEL-FGFR2 = Ba/F3-TEL-FGFR2 (Homo sapiens, UniProt P21802+P41212); test: Cell viability (proliferation inhibition) of Ba/F3 cells, CellTiter Glo; settings: read-out: Ba/F3 cell FGFR2 (IC50 nM), 72 h
# Ba/F3-TEL-FGFR2, sequence (P21802 481-770 limits assumed, one chain of several): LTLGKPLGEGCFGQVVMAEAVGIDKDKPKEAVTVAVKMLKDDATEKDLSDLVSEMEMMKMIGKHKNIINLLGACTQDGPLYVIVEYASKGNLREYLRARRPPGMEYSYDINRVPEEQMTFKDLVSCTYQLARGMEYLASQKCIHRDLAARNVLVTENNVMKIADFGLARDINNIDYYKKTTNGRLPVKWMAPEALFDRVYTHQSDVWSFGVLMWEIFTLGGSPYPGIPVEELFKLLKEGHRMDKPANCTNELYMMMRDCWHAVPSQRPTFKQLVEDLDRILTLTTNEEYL
# Ba/F3-TEL-FGFR1 = Ba/F3-TEL-FGFR1 (Homo sapiens, UniProt P11362+P41212); test: as above; settings: read-out: Ba/F3 cell FGFR1 (IC50 nM), 72 h
# Ba/F3-TEL-FGFR1, sequence (P11362 478-767 limits assumed, one chain of several): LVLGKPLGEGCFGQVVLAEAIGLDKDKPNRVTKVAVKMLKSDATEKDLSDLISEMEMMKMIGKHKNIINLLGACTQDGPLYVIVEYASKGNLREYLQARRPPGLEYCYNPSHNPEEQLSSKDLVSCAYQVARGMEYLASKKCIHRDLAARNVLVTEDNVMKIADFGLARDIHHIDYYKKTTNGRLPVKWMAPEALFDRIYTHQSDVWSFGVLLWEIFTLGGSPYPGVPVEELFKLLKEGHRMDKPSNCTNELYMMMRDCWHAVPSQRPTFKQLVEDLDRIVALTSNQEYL
compound,measurement,setting,value
C=C(C)C(=O)Nc1ccc(-c2c(-c3ccc(N=S4(=O)CCCC4)cc3)c3c(N)ncnc3n2C)c(F)c1 [Compound 24],AUC(0-t),[1],871 ng·h/mL
same,Cmax,[1],270 ng/mL
same,Tmax,[1],15 min
same,half-life,[1],85.8 min
same,hepatocyte CLint,"[2]; hepatocytes, read-out: in vitro CLint (µL/min/10^6 cells)",37.1 µL/min/1e6 cells
same,half-life,"[2]; hepatocytes, read-out: in vitro t1/2",37.3 min
same,Remaining percentage of compound after 60 min of incubation (%),[2]; 60 min,37.55%
same,IC50,CYP1A2,> 10 µM
same,IC50,CYP2C9,29 µM
same,IC50,CYP2C19,19.4 µM
same,IC50,CYP2D6,14.3 µM
same,IC50,CYP3A4,10.7 µM
same,IC50,hERG,> 10 µM
same,inhibition at 0.3 µM,"hERG; human, hek-293 cells",-1.24%
same,inhibition at 1 µM,"hERG; human, hek-293 cells",7.73%
same,inhibition at 3 µM,"hERG; human, hek-293 cells",10.2%
same,inhibition at 10 µM,"hERG; human, hek-293 cells",32.2%
same,inhibition at 30 µM,"hERG; human, hek-293 cells",14.2%
same,IC50,Ba/F3-TEL-FGFR2,2.1 nM
same,IC50,Ba/F3-TEL-FGFR1,1910 nM
